From US10941121B2 (AZIENDA OSPEDALIERA UNIVERSITARIA SENESE, priority 2015, dated 2021)
Like-named read-outs stand apart in the source and are kept apart here.

Tests used:
[1] = tested on: Hepatitis C Virus (HCV) replicon system; experiment: HCV replicon system, luciferase method in LucUbiNeo-ET cells; conditions: for EC50: Hepatitis C virus, 48 h, read-out: EC50 (μM) HCV replicon system
DDX3 Helicase [2] = target: T1, DDX3 Helicase (Homo sapiens, UniProt O00571); experiment: biochemical
[3] = Cytotoxicity, MTT method in LUNET cells; type: cell-based; conditions: human; MMT method in LUNET cells; read-out: CC50 (μM) non-infected cells
Method: Toxicity (CC50) was analysed in the Lunet/HuH7 cells by the addition of 10 μL of MTT (3-(4,5-dimethylthiazol-2-yl)-2,5-diphenyltetrazolium bromide) per well. After 4 h of incubation at 37° C. in a humidified atmosphere with 5% CO2, the amount of formazan produced was quantified spectrophotometrically at 550/620 nm (C. Pannecouque et al, Nature protocol 2008; 3 (3): 427-434). […] These assays were done in duplicate.

DDX3 Helicase [4] = target: T1, DDX3 Helicase; conditions: for IC50: read-out: ID50 (μM) against DDX3 Helicase, n.a. = compound not active; for DDX3 helicase activity compared with EI01D: in words
[5] = Parallel Artificial Membrane Permeability Assay (PAMPA); type: in vitro ADME; conditions: for Papp at 5 h, 0.5 mM: PAMPA, phosphatidylcholine in dodecane, pH 7.4, 5 h, room temperature, read-out: PAMPA Papp *10^−6 (cm/s) GI; for PAMPA membrane retention (RM %): value in brackets in the PAMPA cell
Method: Parallel Artificial Membrane Permeability Assay (PAMPA). Donor solution (0.5 mM) was prepared by diluting 1 mM dimethylsulfoxide (DMSO) compound stock solution using phosphate buffer (pH 7.4, 0.025 M). Filters were coated with 5 μL of a 1% (w/v) dodecane solution of phosphatidylcholine prepared from CHCl3 solution 10% w/v, for intestinal permeability. Donor solution (150 μL) was added to each well of the filter plate. To each well of the acceptor plate were added […] (50% DMSO in phosphate buffer). All compounds were tested in three different plates on different days. The sandwich was incubated for 5 h at room temperature under gentle shaking. After the incubation time, the plates were separated, and samples were taken from both receiver and donor sides and analyzed using LC with UV detection at 280 nm.
LC analysis were performed with a Varian Prostar HPLC system (Varian Analytical Instruments, USA) equipped with a binary pump with a manual injection valve and model Prostar 325 UV-VIS Detector.
Permeability (Papp) for PAMPA was calculated according to the following equation, obtained from Wohnsland and Faller and Sugano et al. equation with some modification in order to obtain permeability values in cm s^−1,
where VA is the volume in the acceptor well, VD is the volume in the donor well (cm^3), A is the “effective area” of the membrane (cm^2), t is the incubation time (s) and r the ratio between drug concentration in the acceptor and equilibrium concentration of the drug in the total volume (VD+VA). Drug concentration is estimated by using the peak area integration.
Membrane retentions (%) were calculated according to the following equation: […]
where r is the ratio between drug concentration in the acceptor and equilibrium concentration, D, A, and Eq represented drug concentration in the donor, acceptor and equilibrium solution, respectively.

Water Solubility Assay = type: physicochemical; conditions: thermodynamic from solid
Method: Water Solubility Assay. Each solid compound (1 mg) was added to 1 mL of water. The samples were shaked in a shaker bath at room temperature for 24-36 h. The suspensions were filtered through a 0.45 μm nylon filter (Acrodisc), and the solubilized compound determined by LC-MS-MS assay. For each compound the determination was performed in triplicate.
For the quantification was used an LC-MS system consisted of a Varian apparatus (Varian Inc) including a vacuum solvent degassing unit, two pumps (212-LC), a Triple Quadrupole MSD (Mod. 320-LC) mass spectrometer with ES interface and Varian MS Workstation System Control Vers. 6.9 software. […] The flow rate was 0.2 mL min^−1 and injection volume was 5 μL. The instrument operated in positive mode and parameters were: detector 1850 V, drying gas pressure 25.0 psi, desolvation temperature 300.0° C., nebulizing gas 40.0 psi, needle 5000 V and shield 600 V. Nitrogen was used as nebulizer gas and drying gas. Collision induced dissociation was performed using Argon as the collision gas at a pressure of 1.8 mTorr in the collision cell.

[6] = experimental aqueous solubility, read-out: LogS (converted)
[7] = room temperature, 24-36 h, read-out: Aq. Solub.

T1 sequence (O00571 whole entry): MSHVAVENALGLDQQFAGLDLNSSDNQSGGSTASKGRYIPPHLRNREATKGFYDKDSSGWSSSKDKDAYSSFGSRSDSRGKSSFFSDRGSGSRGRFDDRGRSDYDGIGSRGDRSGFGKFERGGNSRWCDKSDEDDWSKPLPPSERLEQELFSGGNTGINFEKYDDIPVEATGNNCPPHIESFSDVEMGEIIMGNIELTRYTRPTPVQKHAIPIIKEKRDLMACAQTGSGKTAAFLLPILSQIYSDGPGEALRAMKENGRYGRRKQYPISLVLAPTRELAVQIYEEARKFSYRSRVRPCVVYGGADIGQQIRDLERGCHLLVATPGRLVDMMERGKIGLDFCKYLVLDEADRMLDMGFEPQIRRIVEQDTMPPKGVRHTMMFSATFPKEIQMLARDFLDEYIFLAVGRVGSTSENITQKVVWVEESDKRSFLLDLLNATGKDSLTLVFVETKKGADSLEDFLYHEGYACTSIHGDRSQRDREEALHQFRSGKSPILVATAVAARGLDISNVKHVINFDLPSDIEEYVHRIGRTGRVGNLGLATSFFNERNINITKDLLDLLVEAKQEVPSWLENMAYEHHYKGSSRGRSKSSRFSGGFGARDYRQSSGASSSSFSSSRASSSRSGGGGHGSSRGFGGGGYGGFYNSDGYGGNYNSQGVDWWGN

| SMILES | EC50 [1] | IC50 (DDX3 Helicase [2]) | CC50 [3] | also measured |
| --- | --- | --- | --- | --- |
| Cc1ccccc1NC(=O)Nc1ccc(-n2cc(C(C)(C)C)nn2)cc1 [Compound 8b, 1-(4-(4-tert-butyl-1H-1,2,3-triazol-1-yl)phenyl)-3-o-tolylurea] | 5.73 µM | 3.36 µM | 100 µM | – |
| Cc1ccccc1NC(=O)Nc1ccc(-n2cc(CN(C)Cc3ccccc3)nn2)cc1 [Compound 8c, 1-(4-(4-methanamine,N-[(phenyl)methyl]-N-methyl-1H-1,2,3-triazol-1yl)phenyl)-3-o-tolylurea] | – | 22.8 µM | – | – |
| Cc1cn(-c2ccc(NC(=O)Nc3ccccc3C)cc2)nn1 [Compound 8f, 1-(4-(4-methyl-1H-1,2,3-triazol-1-yl)phenyl)-3-o-tolylurea] | > 36 µM | – | 36 µM | – |
| CCc1cn(-c2ccc(NC(=O)Nc3ccccc3C)cc2)nn1 [Compound 8g, 1-(4-(4-ethyl-1H-1,2,3-triazol-1-yl)phenyl)-3-o-tolylurea] | 36 µM | 0.98 µM | 295 µM | – |
| CCCCc1cn(-c2ccc(NC(=O)Nc3cnccc3C)cc2)nn1 [Compound 15a, 1-(4-(4-butyl-1H-1,2,3-triazol-1-yl)phenyl)-3-(4-methylpyridin-3-yl)urea] | – | 1.47 µM | – | – |
| Cc1ccncc1NC(=O)Nc1ccc(-n2cc(CCC(C)C)nn2)cc1 [Compound 15b, 1-(4-(4-isopentyl-1H-1,2,3-triazol-1-yl)phenyl)-3-(4-methylpyridin-3-yl)urea] | 3.65 µM | 2 µM | 180 µM | – |
| Cc1ccccc1NC(=O)Nc1ccc(-n2cc(C(F)(F)C(F)(F)C(F)(F)C(F)(F)F)nn2)cc1 [Compound 20c] | > 125 µM | – | > 125 µM | IC50 (DDX3 Helicase [4]): 6 µM |
| COCCc1cn(-c2ccc(NC(=O)Nc3ccccc3C)cc2)nn1 [Compound 20f, 1-(4-(4-(2-methoxyethyl)-1H-1,2,3-triazol-1-yl)phenyl)-3-o-tolylurea] | 28.8 µM | – | 44.4 µM | Papp at 5 h, 0.5 mM [5]: 0.69 ×10⁻⁶ cm/s; PAMPA membrane retention (RM %) [5]: 7.4%; IC50 (DDX3 Helicase [4]): 1 µM; solubility (Water Solubility Assay; [6]): 50.1 µM; solubility (Water Solubility Assay; [7]): 26300 ng/mL |
| Cc1c(Cl)cccc1NC(=O)Nc1ccc(-n2cc(CCC(C)C)nn2)cc1 [Compound 21b, 1-(3-chloro-2-methylphenyl)-3-(4-(4-isopentyl-1H-1,2,3-triazol-1-yl)phenyl)urea] | 6.11 µM | – | 42.1 µM | Papp at 5 h, 0.5 mM [5]: 2.51 ×10⁻⁶ cm/s; PAMPA membrane retention (RM %) [5]: 59.1%; solubility (Water Solubility Assay; [6]): < 0.00251 µM; solubility (Water Solubility Assay; [7]): < 1 ng/mL |
| CC(C)CCc1cn(-c2ccc(NC(=O)Nc3ccccc3C(F)(F)F)cc2)nn1 [Compound 22b, 1-(4-(4-isopentyl-1H-1,2,3-triazol-1-yl)phenyl)-3-(2-(trifluoromethyl)phenyl)urea] | 0.67 µM | 0.17 µM | 46.8 µM | Papp at 5 h, 0.5 mM [5]: 7.41 ×10⁻⁶ cm/s; PAMPA membrane retention (RM %) [5]: 24.8%; activity against HCV, in words [1]: best activity; DDX3 helicase activity compared with EI01D (DDX3 Helicase [4]): approximately ten-fold more active; solubility (Water Solubility Assay; [6]): < 0.00251 µM; solubility (Water Solubility Assay; [7]): 2 ng/mL |
| Cc1ccccc1NC(=O)Nc1ccc(-n2cc(CO)nn2)cc1 [Compound 35a, 1-(4-(4-(hydroxymethyl)-1H-1,2,3-triazol-1-yl)phenyl)-3-o-tolylurea] | – | 17.5 µM | – | – |
| Cc1ccccc1NC(=O)Nc1ccc(-n2cc(CCO)nn2)cc1 [Compound 35b, 1-(4-(4-(hydroxyethyl)-1H-1,2,3-triazol-1-yl)phenyl)-3-o-tolylurea] | 28.9 µM | 20 µM | > 370 µM | – |
| Cc1ccccc1NC(=O)Nc1ccc(-n2cc(CN3CCOCC3)nn2)cc1 [Compound 35e, 1-(4-(4-(morpholinomethyl)-1H-1,2,3-triazol-1-yl)phenyl)-3-o-tolylurea] | > 125 µM | – | > 125 µM | – |
| Cc1ccccc1NC(=O)Nc1ccc(-n2cc(CCN3CCOCC3)nn2)cc1 [Compound 35f, 1-(4-(4-(morpholinoethyl)-1H-1,2,3-triazol-1-yl)phenyl)-3-o-tolylurea] | > 125 µM | – | > 125 µM | – |
| Cc1ccccc1NC(=O)Nc1ccc(-n2cc(CCCN(C)C)nn2)cc1 [Compound 35i, 1-(4-(4-(dimethylaminopropyl)-1H-1,2,3-triazol-1-yl)phenyl)-3-o-tolylurea] | – | – | – | IC50 (DDX3 Helicase [4]): 2.9 µM |
| Cc1ccccc1NC(=O)Nc1ccc(-n2cc(CCOC(=O)CC(C)C)nn2)cc1 [Compound 37, 2-(1-(4-(3-(o-tolyl)ureido)phenyl)-1H-1,2,3-triazol-4-yl)ethyl 3-methylbutanoate] | 11.7 µM | – | 180 µM | IC50 (DDX3 Helicase [4]): 1.3 µM |
| CC(C)CC(=O)OCCc1cn(-c2ccc(NC(=O)Nc3ccccc3C(F)(F)F)cc2)nn1 [Compound 38, 2-(1-(4-(3-(2-(trifluoromethyl)phenyl)ureido)phenyl)-1H-1,2,3-triazol-4-yl)ethyl 3-methylbutanoate] | 0.5 µM | – | 23.2 µM | IC50 (DDX3 Helicase [4]): 0.4 µM |
| O=C(Nc1ccc(-n2cc(CCOC(=O)/C=C/c3ccc4c(c3)OCO4)nn2)cc1)Nc1ccccc1C(F)(F)F [Compound 39, 2-(1-(4-(3-(2-(trifluoromethyl)phenyl)ureido)phenyl)-1H-1,2,3-triazol-4-yl)ethyl 3-(benzo[d][1,3]dioxol-5-yl)acrylate] | 4.3 µM | – | 28.6 µM | IC50 (DDX3 Helicase [4]): 5.1 µM |
| CCCC(C)C(F)c1cn(-c2ccc(NC(=O)Nc3ccccc3C(F)(F)F)cc2)nn1 (centres unmarked) [Compound 42c, 1-(4-(4-(1-fluoro-2-methylpentyl)-1H-1,2,3-triazol-1-yl)phenyl)-3-(2-(trifluoromethyl)phenyl) urea] | – | 0.3 µM | – | – |
| CCOCn1nnc(-c2ccc(NC(=O)Nc3ccccc3C)cc2)n1 [Compound 50, 1-(4-(2-(ethoxymethyl)-2H-tetrazol-5-yl)phenyl)-3-(o-tolyl)urea] | 22.8 µM | 14 µM | 245 µM | – |
| CCCCn1nnc(-c2ccc(NC(=O)Nc3cnccc3C)cc2)n1 [Compound 52, 1-(4-(2-butyl-2H-tetrazol-5-yl)phenyl)-3-(4-methylpyridin-3-yl)urea] | – | 2.49 µM | – | – |
| CC(C)CCc1cn(-c2ccc(NC(=O)Nc3ccccc3F)cc2)nn1 [Compound 55a, 1-(2-fluorophenyl)-3-(4-(4-isopentyl-1H-1,2,3-triazol-1-yl)phenyl)urea] | 0.4 µM | – | > 340 µM | activity against HCV, in words [1]: best activity; DDX3 helicase activity compared with EI01D (DDX3 Helicase [4]): approximately ten-fold more active; IC50 (DDX3 Helicase [4]): 0.12 µM |
| Cc1nc(Cl)c2ccccc2c1NC(=O)Nc1ccc(-n2cc(CCC(C)C)nn2)cc1 [Compound 55g, 1-(1-chloro-3-methylisoquinolin-4-yl)-3-(4-(4-isopentyl-1H-1,2,3-triazol-1-yl)phenyl)urea] | 12.4 µM | 10 µM | > 278 µM | – |
| CCCCc1cn(-c2cccc(S(=O)(=O)Nc3ccc(OC)cc3)c2)nn1 [Compound 64b, 3-(4-butyl-1H-1,2,3-triazol-1-yl)-N-(4-methoxyphenyl)benzenesulfonamide] | – | 52.2 µM | – | – |
| CCCCc1cn(-c2ccc(S(=O)(=O)Nc3ccccc3O)cc2)nn1 [Compound 65a, 4-(4-butyl-1H-1,2,3-triazol-1-yl)-N-(2-hydroxyphenyl)benzenesulfonamide] | – | 15.5 µM | – | – |
